Like-named read-outs stand apart in the source and are kept apart here.
Assays:
human OX1 receptor = molecular target: T1, human OX1 receptor (Homo sapiens, UniProt O43613); test: Measurement of orexin receptor antagonistic activity (calcium fluorescence, FLIPRtetra); assay type: cell-based; settings: for inhibition at 10 µM: CHO, read-out: Human Orexin1 receptor inhibition (at 10 μM)
T1 construct: expressed in transfected cells; host or cells: CHO cells
T1 sequence (O43613 1-425): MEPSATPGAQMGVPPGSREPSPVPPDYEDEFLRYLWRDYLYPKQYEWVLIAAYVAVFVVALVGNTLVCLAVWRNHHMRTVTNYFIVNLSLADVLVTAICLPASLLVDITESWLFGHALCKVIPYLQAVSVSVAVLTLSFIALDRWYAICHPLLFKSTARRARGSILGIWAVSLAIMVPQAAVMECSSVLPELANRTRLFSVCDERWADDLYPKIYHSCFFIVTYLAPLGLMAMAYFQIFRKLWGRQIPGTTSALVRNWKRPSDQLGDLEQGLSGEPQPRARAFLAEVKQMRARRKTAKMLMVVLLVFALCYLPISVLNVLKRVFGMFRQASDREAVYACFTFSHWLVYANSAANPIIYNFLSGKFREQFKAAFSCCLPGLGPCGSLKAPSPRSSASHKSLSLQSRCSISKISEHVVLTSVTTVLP
Procedure, shortened: (§1)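 CHO cells expressing human OX1 or OX2 receptor, cultured one day. Compound in HBSS/20 mM HEPES/0.1% BSA added, then orexin-A at 1 nM final (OX1) or 0.3 nM final (OX2); calcium fluorescence by FLIPRtetra every 1 s for 2 min.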

human OX2 receptor = molecular target: T2, human OX2 receptor (Homo sapiens, UniProt O43614); test: as above; assay type: cell-based; settings: for inhibition at 10 µM: CHO, read-out: Human Orexin2 receptor inhibition (at 10 μM)
T2 construct: expressed in transfected cells; host or cells: CHO cells
T2 sequence (O43614 1-444): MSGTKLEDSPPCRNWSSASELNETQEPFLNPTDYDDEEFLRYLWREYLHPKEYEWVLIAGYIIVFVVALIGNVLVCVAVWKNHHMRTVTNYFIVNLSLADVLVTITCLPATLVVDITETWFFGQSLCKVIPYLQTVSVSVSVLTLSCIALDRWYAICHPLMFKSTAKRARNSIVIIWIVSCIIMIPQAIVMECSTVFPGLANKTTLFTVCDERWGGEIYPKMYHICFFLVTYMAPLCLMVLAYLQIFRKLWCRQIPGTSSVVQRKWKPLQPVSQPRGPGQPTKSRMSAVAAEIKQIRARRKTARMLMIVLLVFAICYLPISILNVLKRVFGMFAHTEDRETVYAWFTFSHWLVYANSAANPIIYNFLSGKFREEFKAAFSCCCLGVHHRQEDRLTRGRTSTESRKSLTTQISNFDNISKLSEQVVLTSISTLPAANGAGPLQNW
Procedure, shortened: as §1

[1] = 10 μM test compound, CHO cells expressing human OX1 receptor, OX-A 1 nM
[2] = 10 μM test compound, CHO cells expressing human OX2 receptor, OX-A 0.3 nM

SMILES	inhibition at 10 µM (human OX1 receptor; [1])	inhibition at 10 µM (human OX2 receptor; [2])	also measured
Cc1ccc(-n2nccn2)c(C(=O)N2CCON(c3ncc(C4CC4)cn3)CC2)c1 [Example 10, (2-(5-cyclopropylpyrimidin-2-yl)-1,2,5-oxadiazepan-5-yl)(5-methyl-2-(2H-1,2,3-triazol-2-yl)phenyl)methanone]	93%	94%	–
COC(=O)c1ccccc1C(=O)N1CCN(c2cc(C)nc(C)n2)O[C@@H](C)C1 [Example 233, methyl 2-(((7S)-2-(2,6-dimethylpyrimidin-4-yl)-7-methyl-1,2,5-oxadiazepan-5-yl)carbonyl)benzoate]	17%	87%	–
Cc1cc(N2CC(C)N(C(=O)c3ccccc3-n3nccn3)CCO2)nc(C)n1 (centres unmarked) [Example 187, (2-(2,6-dimethylpyrimidin-4-yl)-4-methyl-1,2,5-oxadiazepan-5-yl)(2-(2H-1,2,3-triazol-2-yl)phenyl)methanone]	100%	103%	–
Cc1cc(N2CCN(C(=O)c3cc(Cl)ccc3-c3ncccn3)CCO2)nc(C)n1 [Example 226, (5-chloro-2-(pyrimidin-2-yl)phenyl)(2-(2,6-dimethylpyrimidin-4-yl)-1,2,5-oxadiazepan-5-yl)methanone]	80%	101%	–
Cc1cc(N2C[C@H](C)N(C(=O)c3ccccc3-n3nccn3)[C@H](C)CO2)ncn1 [Example 174, ((4S,6R)-4,6-dimethyl-2-(6-methylpyrimidin-4-yl)-1,2,5-oxadiazepan-5-yl) (2-(2H-1,2,3-triazol-2-yl)phenyl)methanone]	95%	98%	–
Cc1cc(N2CCN(C(=O)c3ccc(F)cc3-c3ncccn3)C[C@H](C)O2)nc(C)n1 [Example 218, ((7S)-2-(2,6-dimethylpyrimidin-4-yl)-7-methyl-1,2,5-oxadiazepan-5-yl)(4-fluoro-2-(pyrimidin-2-yl)phenyl)methanone]	91%	101%	–
Cc1ccc(-n2nccn2)c(C(=O)N2CCN(c3ccc(Cl)cn3)OC[C@H]2C)c1 [Example 121, ((6R)-2-(5-chloropyridin-2-yl)-6-methyl-1,2,5-oxadiazepan-5-yl) (5-methyl-2-(2H-1,2,3-triazol-2-yl)phenyl)methanone]	92%	94%	–
Cc1cc(N2CCN(C(=O)c3ccccc3-n3cccn3)CCO2)nc(C)n1 [Example 30, (2-(2,6-dimethyl-pyrimidin-4-yl)-1,2,5-oxadiazepan-5-yl) (2-(1H-pyrazol-1-yl)phenyl) methanone]	1%	101%	–
Cc1ccc(C(=O)N2CCN(c3cc(C)nc(C)n3)O[C@@H](C)C2)c(-c2ncccn2)c1 [Example 217, ((7S)-2-(2,6-dimethylpyrimidin-4-yl)-7-methyl-1,2,5-oxadiazepan-5-yl)(4-methyl-2-(pyrimidin-2-yl)phenyl)methanone]	50%	101%	–
C[C@@H]1CON(c2cc(C3CC3)ncn2)CCN1C(=O)c1ccccc1-n1nccn1 [Example 150, ((6R)-2-(6-cyclopropylpyrimidin-4-yl)-6-methyl-1,2,5-oxadiazepan-5-yl) (2-(2H-1,2,3-triazol-2-yl)phenyl)methanone]	58%	99%	–
Cc1cc(C)nc(N2CCN(C(=O)c3ccccc3C#N)CCO2)n1 [Example 45, 2-((2-(4,6-dimethylpyrimidin-2-yl)-1,2,5-oxadiazepan-5-yl)carbonyl)benzonitrile]	16%	19%	–
Cc1nc(N2CCN(C(=O)c3ccccc3-c3nc(C)no3)C[C@H](C)O2)cc(C(F)(F)F)n1 [Example 111, ((7S)-7-methyl-2-(2-methyl-6-(trifluoromethyl)pyrimidin-4-yl)-1,2,5-oxadiazepan-5-yl)(2-(3-methyl-1,2,4-oxadiazol-5-yl)phenyl)methanone]	9%	100%	–
CC[C@@H]1CON(c2cc(C)nc(C)n2)CCN1C(=O)c1ccccc1-c1nccs1 [Example 169, ((6R)-2-(2,6-dimethylpyrimidin-4-yl)-6-ethyl-1,2,5-oxadiazepan-5-yl)(2-(1,3-thiazol-2-yl)phenyl)methanone]	100%	99%	–
Cc1cc(C)nc(N2CCN(C(=O)c3ccccc3Cl)CCO2)n1 [Example 53, (2-chlorophenyl) (2-(4,6-dimethylpyrimidin-2-yl)-1,2,5-oxadiazepan-5-yl)methanone]	9%	57%	–
Cc1nc(C(F)F)cc(N2CCN(C(=O)c3ccccc3-n3nccn3)C[C@H](C)O2)n1 [Example 93, ((7S)-2-(6-(difluoromethyl)-2-methylpyrimidin-4-yl)-7-methyl-1,2,5-oxadiazepan-5-yl) (2-(2H-1,2,3-triazol-2-yl)phenyl)methanone]	72%	100%	–
Cc1ccc(-n2nccn2)c(C(=O)N2CCON(c3nc(C)cc(-c4ccc(F)cc4)n3)CC2)c1 [Example 12, (2-(4-(4-fluorophenyl)-6-methylpyrimidin-2-yl)-1,2,5-oxadiazepan-5-yl)(5-methyl-2-(2H-1,2,3-triazol-2-yl)phenyl)methanone]	101%	93%	–
Cc1cc(N2OCCN(C(=O)c3ccccc3-n3nccn3)CC2C)nc(C)n1 (centres unmarked) [Example 188, (2-(2,6-dimethylpyrimidin-4-yl)-3-methyl-1,2,5-oxadiazepan-5-yl)(2-(2H-1,2,3-triazol-2-yl)phenyl)methanone]	13%	29%	–
Cc1ccc(-n2nccn2)c(C(=O)N2CCN(c3cn4ccccc4n3)OC[C@H]2C)c1 [Example 130, ((6R)-2-(imidazo[1,2-a]pyridin-2-yl)-6-methyl-1,2,5-oxadiazepan-5-yl) (5-methyl-2-(2H-1,2,3-triazol-2-yl)phenyl)methanone]	–	–	inhibition at 10 µM (human OX1 receptor): 62%; inhibition at 10 µM (human OX2 receptor): 56%
Cc1cc(N2CC(C)N(C(=O)c3ccccc3-n3nccn3)C[C@H](C)O2)nc(C)n1 (stereo partly drawn) [Example 189, ((7S)-2-(2,6-dimethylpyrimidin-4-yl)-4,7-dimethyl-1,2,5-oxadiazepan-5-yl)(2-(2H-1,2,3-triazol-2-yl)phenyl)methanone]	37%	57%	–
Cc1ccc(-n2nccn2)c(C(=O)N2CCN(c3nc(C)cc(C#N)n3)OC[C@H]2C)c1 [Example 115, 6-methyl-2-((6R)-6-methyl-5-(5-methyl-2-(2H-1,2,3-triazol-2-yl)benzoyl)-1,2,5-oxadiazepan-2-yl)pyrimidine-4-carbonitrile]	103%	100%	–
Cc1cc(C)nc(N2CCN(C(=O)c3cccc4nn(C)cc34)CCO2)n1 [Example 69, (2-(4,6-dimethylpyrimidin-2-yl)-1,2,5-oxadiazepan-5-yl) (2-methyl-2H-indazol-4-yl) methanone]	–	–	inhibition at 10 µM (human OX1 receptor): 3%; inhibition at 10 µM (human OX2 receptor): 45%
Cc1cc(N2CCN(C(=O)c3ccccc3-n3nccn3)C(C)C(C)O2)nc(C)n1 (centres unmarked) [Example 193, (2-(2,6-dimethylpyrimidin-4-yl)-6,7-dimethyl-1,2,5-oxadiazepan-5-yl)(2-(2H-1,2,3-triazol-2-yl)phenyl)methanone]	–	–	Human Orexin1 receptor inhibition (at 10 μM) (human OX1 receptor; [1]): 89%; Human Orexin2 receptor inhibition (at 10 μM) (human OX2 receptor; [2]): 103%
Cc1cc(C#N)nc(N2CCN(C(=O)c3cc(F)ccc3-n3nccn3)[C@H](C)CO2)n1 [Example 163, 2-((6R)-5-(5-fluoro-2-(2H-1,2,3-triazol-2-yl)benzoyl)-6-methyl-1,2,5-oxadiazepan-2-yl)-6-methylpyrimidine-4-carbonitrile]	61%	102%	–
Cc1cc(N2CCN(C(=O)c3cc(Cl)ccc3-c3ncc(F)cn3)[C@H](C)CO2)nc(C)n1 [Example 221, (5-chloro-2-(5-fluoropyrimidin-2-yl)phenyl)((6R)-2-(2,6-dimethylpyrimidin-4-yl)-6-methyl-1,2,5-oxadiazepan-5-yl)methanone]	51%	102%	–
COc1cccc(OC)c1C(=O)N1CCON(c2nc(C)cc(C)n2)CC1 [Example 47, (2,6-dimethoxyphenyl) (2-(4,6-dimethylpyrimidin-2-yl)-1,2,5-oxadiazepan-5-yl)methanone]	23%	97%	–

Source: patent US10131653B2, “Heterocyclic compound” (TAKEDA PHARMACEUTICAL COMPANY LIMITED, priority 2015, dated 2018)
